Data: PubChem BioAssay AID248 (DTP/NCI, 2004)
Values joined by “and” are separate entries in the source; they are usually repeats but may differ in a detail not shown here. Equal values may be shown once. Inconclusive results and toxic doses are left out. Rule as the data show it: active = T/C of 150% or more; inactive = T/C below 125%.

Test system: L1210 leukemia ip in BDF1 mice, survival T/C
Test: NCI In Vivo Anticancer Drug Screen. Data for tumor model L1210 Leukemia (intraperitoneal) in B6D2F1 (BDF1) mice
Conditions: endpoint: mean survival time, higher = longer survival
In short: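 Antitumor effect is assessed in tumor-bearing animals. Survival in the compound arm is compared with a vehicle-dosed control arm and expressed as their quotient.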

[1] = dose: 50.0 mg/kg/injection, schedule: Q01DX009 (ip), vehicle: Klucel (hydroxypropylcellulose) (HPC)
[2] = dose: 100.0 mg/kg/injection, schedule: Q01DX009 (ip), vehicle: Klucel (hydroxypropylcellulose) (HPC)
[3] = dose: 100.0 mg/kg/injection, schedule: Q04DX003 (ip), vehicle: saline
[4] = dose: 100.0 mg/kg/injection, schedule: Q01DX009 (ip), vehicle: saline
[5] = dose: 200.0 mg/kg/injection, schedule: Q04DX003 (ip), vehicle: saline
[6] = dose: 200.0 mg/kg/injection, schedule: Q01DX009 (ip), vehicle: Klucel (hydroxypropylcellulose) (HPC)
[7] = dose: 100.0 mg/kg/injection, schedule: Q04DX002 (ip), vehicle: Klucel (hydroxypropylcellulose) (HPC)
[8] = dose: 200.0 mg/kg/injection, schedule: Q04DX002 (ip), vehicle: Klucel (hydroxypropylcellulose) (HPC)
[9] = dose: 400.0 mg/kg/injection, schedule: Q04DX002 (ip), vehicle: Klucel (hydroxypropylcellulose) (HPC)

Measured: T/C

COC(=O)c1ccc(OC(=O)Nc2ccc([N+](=O)[O-])cc2OC)cc1
inactive: dose: 25.0 mg/kg/injection, schedule: Q01DX009 (ip), vehicle: Klucel (hydroxypropylcellulose) (HPC) 96 % of control | [1] 101 % of control | [2] 93 % of control and 100 % of control

C[N+](C)(C)c1ccc([N+](=O)[O-])cn1
inactive: [3] 101 % of control

CNc1c2c(nc3ccccc13)CCCC2
inactive: dose: 1.25 mg/kg/injection, schedule: Q01DX009 (ip), vehicle: saline with Tween-80 93 % of control | dose: 1.25 mg/kg/injection, schedule: Q04DX003 (ip), vehicle: saline with Tween-80 97 % of control | dose: 2.5 mg/kg/injection, schedule: Q01DX009 (ip), vehicle: saline with Tween-80 91 % of control | dose: 2.5 mg/kg/injection, schedule: Q04DX003 (ip), vehicle: saline with Tween-80 108 % of control | dose: 5.0 mg/kg/injection, schedule: Q01DX009 (ip), vehicle: saline with Tween-80 89 % of control | dose: 5.0 mg/kg/injection, schedule: Q04DX003 (ip), vehicle: saline with Tween-80 102 % of control

C/C(=C\Cl)CN1C(=O)c2ccccc2C1=O
inactive: [4] 93 % of control | [3] 97 % of control | dose: 200.0 mg/kg/injection, schedule: Q01DX009 (ip), vehicle: saline 113 % of control | [5] 101 % of control | dose: 400.0 mg/kg/injection, schedule: Q01DX009 (ip), vehicle: saline 102 % of control | dose: 400.0 mg/kg/injection, schedule: Q04DX003 (ip), vehicle: saline 105 % of control

COc1cc(OC)c(NC(=O)/C=C/c2ccccc2)cc1Cl
inactive: [2] 92 % of control | [6] 100 % of control | dose: 400.0 mg/kg/injection, schedule: Q01DX009 (ip), vehicle: Klucel (hydroxypropylcellulose) (HPC) 95 % of control

CCCCCCOc1ccc(C=Nc2ccc(C(=O)OCC)cc2)cc1
inactive: [1] 96 % of control | [2] 97 % of control | [6] 97 % of control

c1cc[c]([Sb]([c]2ccccc2)[n]2ccnc2)cc1
inactive: dose: 5.0 mg/kg/injection, schedule: Q04DX002 (ip), vehicle: saline with Tween-80 97 % of control | dose: 10.0 mg/kg/injection, schedule: Q04DX002 (ip), vehicle: saline with Tween-80 97 % of control

COC(=O)C(=O)CC(=O)c1ccc(C)cc1
inactive: [7] 103 % of control | [8] 95 % of control | [9] 106 % of control

Cc1ccc2c(c1)CCCN2C
inactive: dose: 50.0 mg/kg/injection, schedule: Q01DX009 (ip), vehicle: saline 96 % of control | [4] 95 % of control | [3] 100 % of control | [5] 94 % of control

O=C(Nc1cc(F)ccc1F)Oc1cccnc1
inactive: dose: 25.0 mg/kg/injection, schedule: Q01DX001 (ip), vehicle: Klucel (hydroxypropylcellulose) (HPC) 102 % of control | dose: 25.0 mg/kg/injection, schedule: Q04DX003 (ip), vehicle: Klucel (hydroxypropylcellulose) (HPC) 107 % of control | dose: 50.0 mg/kg/injection, schedule: Q01DX001 (ip), vehicle: Klucel (hydroxypropylcellulose) (HPC) 104 % of control | dose: 50.0 mg/kg/injection, schedule: Q04DX003 (ip), vehicle: Klucel (hydroxypropylcellulose) (HPC) 106 % of control | dose: 75.0 mg/kg/injection, schedule: Q01DX009 (ip), vehicle: Klucel (hydroxypropylcellulose) (HPC) 103 % of control and 108 % of control | dose: 100.0 mg/kg/injection, schedule: Q01DX001 (ip), vehicle: Klucel (hydroxypropylcellulose) (HPC) 96 % of control | [2] 95 % of control and 109 % of control | [7] 95 % of control and 105 % of control | dose: 100.0 mg/kg/injection, schedule: Q04DX003 (ip), vehicle: Klucel (hydroxypropylcellulose) (HPC) 97 % of control | dose: 150.0 mg/kg/injection, schedule: Q01DX009 (ip), vehicle: Klucel (hydroxypropylcellulose) (HPC) 107 % of control | [6] 100 % of control | [8] 100 % of control and 108 % of control | [9] 94 % of control and 87 % of control

CCOC(=O)c1c[nH]c2c(Cl)ccc(-c3ccccc3)c2c1=O
inactive: dose: 100.0 mg/kg/injection, schedule: Q01DX001 (ip), vehicle: saline with Tween-80 98 % of control | dose: 200.0 mg/kg/injection, schedule: Q01DX001 (ip), vehicle: saline with Tween-80 96 % of control | dose: 400.0 mg/kg/injection, schedule: Q01DX001 (ip), vehicle: saline with Tween-80 93 % of control
